Where a name gives a salt, the structure may show the parent alone.
What was measured:
Conditions in all cases: exposure time: 72 h
[1] = test system: E13 (patient-derived glioblastoma stem cells of classical subtype); assay: surviving fraction (nuclei count normalised to DMSO); higher = more cells surviving (less toxic)
[2] = test system: E31 (patient-derived glioblastoma stem cells of proneural subtype); assay: as above
[3] = test system: E34 (patient-derived glioblastoma stem cells of proneural subtype); assay: as above
[4] = test system: E28 (patient-derived glioblastoma stem cells of classical subtype); assay: as above
[5] = test system: E21 (patient-derived glioblastoma stem cells of mesenchymal subtype); assay: as above
[6] = test system: FT3469 (normal neural stem cell line); assay: as above
[7] = test system: E57 (patient-derived glioblastoma stem cells of mesenchymal subtype); assay: as above
[8] = test system: E13; assay: phenotypic distance (Euclidean, principal components) from DMSO controls (arbitrary units); higher = stronger morphological change
[9] = test system: E31; assay: as above
[10] = test system: E34; assay: as above
[11] = test system: E28; assay: as above
[12] = test system: E21; assay: as above
[13] = test system: FT3469; assay: as above
[14] = test system: E57; assay: as above
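Throughout, for phenotypic distance (Euclidean, principal components) from DMSO controls: cell Painting imaging in 384-well plates, CellProfiler features reduced to at least 20 principal components, Euclidean distance versus same-plate DMSO vehicle wells (0.1% v/v), median over six images per well.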
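Throughout, for surviving fraction (nuclei count normalised to DMSO): nuclei counted by high-content imaging of Hoechst-stained cells in laminin-coated 384-well plates, relative to 0.1% DMSO vehicle wells, with staurosporine as cell-death control.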

C=CC(=O)Nc1cc(Nc2nccc(-c3cn(C)c4ccccc34)n2)c(OC)cc1N(C)CCN(C)C [Osimertinib mesylate]
Conditions | phenotypic distance | surviving fraction
[1], 4.1 nM | – | 0.883
[1], 12.3 nM | – | 1
[1], 37 nM | – | 0.978
[1], 111.1 nM | – | 0.951
[1], 333.3 nM | – | 1.03
[1], 1000 nM | – | 0.935
[1], 3000 nM | – | 0.547
[2], 4.1 nM | – | 0.963
[2], 12.3 nM | – | 0.947
[2], 37 nM | – | 1.02
[2], 111.1 nM | – | 0.92
[2], 333.3 nM | – | 0.743
[2], 1000 nM | – | 0.773
[2], 3000 nM | – | 0.435
[3], 4.1 nM | – | 0.904
[3], 12.3 nM | – | 0.975
[3], 37 nM | – | 0.973
[3], 111.1 nM | – | 0.878
[3], 333.3 nM | – | 1.13
[3], 1000 nM | – | 0.996
[3], 3000 nM | – | 0.702
[4], 4.1 nM | – | 0.973
[4], 12.3 nM | – | 1.04
[4], 37 nM | – | 0.86
[4], 111.1 nM | – | 1.01
[4], 333.3 nM | – | 0.864
[4], 1000 nM | – | 0.922
[4], 3000 nM | – | 0.496
[5], 4.1 nM | – | 1.11
[5], 12.3 nM | – | 0.955
[5], 37 nM | – | 0.892
[5], 111.1 nM | – | 1.05
[5], 333.3 nM | – | 0.931
[5], 1000 nM | – | 0.909
[5], 3000 nM | – | 0.455
[6], 4.1 nM | – | 0.963
[6], 12.3 nM | – | 0.989
[6], 37 nM | – | 1.02
[6], 111.1 nM | – | 1.03
[6], 333.3 nM | – | 0.843
[6], 1000 nM | – | 1.07
[6], 3000 nM | – | 0.638
[7], 4.1 nM | – | 0.979
[7], 12.3 nM | – | 0.953
[7], 37 nM | – | 0.84
[7], 111.1 nM | – | 0.864
[7], 333.3 nM | – | 0.875
[7], 1000 nM | – | 0.79
[7], 3000 nM | – | 0.547
[8], 4.1 nM | 0.974 | –
[8], 12.3 nM | 0.598 | –
[8], 37 nM | 0.826 | –
[8], 111.1 nM | 0.647 | –
[8], 333.3 nM | 1.84 | –
[8], 1000 nM | 1.28 | –
[8], 3000 nM | 2.96 | –
[9], 4.1 nM | 0.452 | –
[9], 12.3 nM | 0.55 | –
[9], 37 nM | 1.12 | –
[9], 111.1 nM | 0.652 | –
[9], 333.3 nM | 0.826 | –
[9], 1000 nM | 1.22 | –
[9], 3000 nM | 2.48 | –
[10], 4.1 nM | 0.472 | –
[10], 12.3 nM | 0.514 | –
[10], 37 nM | 0.843 | –
[10], 111.1 nM | 0.747 | –
[10], 333.3 nM | 1.66 | –
[10], 1000 nM | 0.95 | –
[10], 3000 nM | 1.31 | –
[11], 4.1 nM | 0.567 | –
[11], 12.3 nM | 0.684 | –
[11], 37 nM | 0.633 | –
[11], 111.1 nM | 1.15 | –
[11], 333.3 nM | 0.864 | –
[11], 1000 nM | 1.16 | –
[11], 3000 nM | 2.16 | –
[12], 4.1 nM | 0.814 | –
[12], 12.3 nM | 0.422 | –
[12], 37 nM | 1.04 | –
[12], 111.1 nM | 0.922 | –
[12], 333.3 nM | 1.1 | –
[12], 1000 nM | 1.12 | –
[12], 3000 nM | 4.6 | –
[13], 4.1 nM | 0.624 | –
[13], 12.3 nM | 0.753 | –
[13], 37 nM | 0.623 | –
[13], 111.1 nM | 0.801 | –
[13], 333.3 nM | 0.702 | –
[13], 1000 nM | 1.37 | –
[13], 3000 nM | 1.12 | –
[14], 4.1 nM | 0.541 | –
[14], 12.3 nM | 0.746 | –
[14], 37 nM | 0.59 | –
[14], 111.1 nM | 1.02 | –
[14], 333.3 nM | 1.3 | –
[14], 1000 nM | 1.38 | –
[14], 3000 nM | 3.02 | –
